According to PMC6450568 (Bioorganic & medicinal chemistry letters, 2019):
Structures can show the parent of a compound that is named as a salt. Where two headings read alike, the source gives them in different places.

Tests used:
[1] = target: T1, native Rho (rhodanese) reporter enzyme (Bos taurus, UniProt P00586); assay: Native Rho enzymatic reporter counter-screen; assay type: biochemical
T1 sequence (P00586 2-297 limits assumed): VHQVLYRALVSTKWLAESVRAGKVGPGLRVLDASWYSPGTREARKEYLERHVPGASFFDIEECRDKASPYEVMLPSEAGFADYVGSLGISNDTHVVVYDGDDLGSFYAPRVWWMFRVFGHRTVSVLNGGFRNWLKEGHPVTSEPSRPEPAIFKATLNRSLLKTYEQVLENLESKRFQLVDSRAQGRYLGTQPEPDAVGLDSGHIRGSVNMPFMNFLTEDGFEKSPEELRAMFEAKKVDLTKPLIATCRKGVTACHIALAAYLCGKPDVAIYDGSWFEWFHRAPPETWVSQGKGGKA

[2] = target: T2, native MDH (malate dehydrogenase) reporter enzyme (Sus scrofa, UniProt P00346); assay: Native MDH enzymatic reporter counter-screen; assay type: biochemical
T2 sequence (P00346 25-338): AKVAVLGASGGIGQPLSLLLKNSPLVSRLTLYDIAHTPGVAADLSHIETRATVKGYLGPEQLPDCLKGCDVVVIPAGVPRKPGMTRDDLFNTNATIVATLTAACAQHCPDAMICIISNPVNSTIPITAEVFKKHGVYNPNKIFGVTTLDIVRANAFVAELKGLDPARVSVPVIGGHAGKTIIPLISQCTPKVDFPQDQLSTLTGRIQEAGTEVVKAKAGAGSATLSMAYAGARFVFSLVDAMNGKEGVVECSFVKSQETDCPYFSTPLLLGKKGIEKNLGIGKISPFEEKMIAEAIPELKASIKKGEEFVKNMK

[3] = target: human HSP60/10 chaperonin system (Homo sapiens, UniProt P10809); assay: HSP60/10-dMDH refolding assay; assay type: biochemical
GroEL ATPase = GroEL ATPase (Escherichia coli, UniProt P0A6F5); assay: biochemical
[4] = target: T3, E. coli GroEL/ES chaperonin system (Escherichia coli, UniProt P0A6F5); assay: biochemical
E. coli GroEL = E. coli GroEL (Escherichia coli, UniProt P0A6F5); assay: Isothermal Titration Calorimetry of suramin binding to GroEL; details: ITC, average of triplicate analyses
[5] = target: T3, E. coli GroEL/ES chaperonin system; assay: High-throughput screens of LOPAC and MicroSource Spectrum libraries; assay type: biochemical; details: both GroEL/ES-dMDH and GroEL/ES-dRho screens, single concentration
[6] = target: T3, E. coli GroEL/ES chaperonin system; assay: biochemical; remark: listed apart in the source
[7] = Biochemical Assay IC50, GroEL/ES-mediated refolding of dMDH, dose-response

E. coli GroEL, sequence (P0A6F5 2-548): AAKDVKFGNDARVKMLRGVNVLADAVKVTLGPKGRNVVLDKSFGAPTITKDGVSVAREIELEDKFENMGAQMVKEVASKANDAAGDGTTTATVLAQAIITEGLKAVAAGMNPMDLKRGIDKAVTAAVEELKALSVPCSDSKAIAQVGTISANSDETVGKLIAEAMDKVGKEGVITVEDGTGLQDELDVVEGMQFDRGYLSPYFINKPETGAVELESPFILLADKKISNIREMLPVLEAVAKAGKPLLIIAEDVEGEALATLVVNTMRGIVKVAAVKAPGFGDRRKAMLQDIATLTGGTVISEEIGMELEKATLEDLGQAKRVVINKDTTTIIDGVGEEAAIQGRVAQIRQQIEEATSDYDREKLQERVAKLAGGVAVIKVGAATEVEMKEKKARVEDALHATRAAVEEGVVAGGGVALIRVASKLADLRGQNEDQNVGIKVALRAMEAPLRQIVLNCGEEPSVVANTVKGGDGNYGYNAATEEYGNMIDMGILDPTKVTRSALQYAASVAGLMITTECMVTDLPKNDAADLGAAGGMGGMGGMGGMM
T3 sequence (P0A6F5 2-548): as above
human HSP60/10 chaperonin system, sequence (P10809 27-573): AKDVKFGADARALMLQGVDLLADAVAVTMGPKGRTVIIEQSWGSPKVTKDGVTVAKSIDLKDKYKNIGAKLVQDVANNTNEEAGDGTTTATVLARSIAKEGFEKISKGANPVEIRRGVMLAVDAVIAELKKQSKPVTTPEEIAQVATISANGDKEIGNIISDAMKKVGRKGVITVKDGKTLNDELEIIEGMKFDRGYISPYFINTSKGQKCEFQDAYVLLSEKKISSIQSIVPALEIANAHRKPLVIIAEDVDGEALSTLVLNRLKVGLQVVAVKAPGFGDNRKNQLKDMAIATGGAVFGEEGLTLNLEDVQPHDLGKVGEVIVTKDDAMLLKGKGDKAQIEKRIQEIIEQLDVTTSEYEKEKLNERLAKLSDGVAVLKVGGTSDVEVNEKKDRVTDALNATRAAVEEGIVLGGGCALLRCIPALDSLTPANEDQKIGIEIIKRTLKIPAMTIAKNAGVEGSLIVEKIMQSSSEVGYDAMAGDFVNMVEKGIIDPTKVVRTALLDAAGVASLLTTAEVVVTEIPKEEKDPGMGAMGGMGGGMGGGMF
GroEL ATPase, sequence (P0A6F5 2-548): as the sequence (P0A6F5 2-548) above

Work on `COc1ccc(-c2ccc3cc(C(=O)O)ccc3c2)cc1C12CC3CC(CC(C3)C1)C2` [Compound 3, Adapalene] yielded an IC50 [1] of over 100 µM and an IC50 [2] of over 63 µM.
In the case of `COc1cc(/C=C/C(=O)CC(=O)/C=C/c2ccc(O)c(OC)c2)ccc1O` [Compound 4, Curcumin], the IC50 [2] is reported as over 63 µM.
In the case of `C=CC1=C(C)c2cc3[nH]c(cc4nc(cc5[nH]c(cc1n2)c(C)c5CCC(=O)O)C(CCC(=O)O)=C4C)c(C)c3C=C` [Compound 5, Protoporphyrin IX], the IC50 [1] is reported as over 100 µM and the IC50 [2] is reported as over 63 µM.
`C=C(CC)C(=O)c1ccc(OCC(=O)O)c(Cl)c1Cl` [Compound 6, Ethacrynic acid] gave an IC50 [1] of over 100 µM and an IC50 [2] of over 63 µM.
For `CCCCCCCCCCCCCCCCC(C(=O)O)C(O)(CC(=O)O)C(=O)O` (centres unmarked) [Compound 7, Agaric acid], the IC50 [1] was over 100 µM and the IC50 [2] was over 63 µM.
With `CCCCCCCCCCCCCCCC[N+](C)(C)C` [Compound 11, Hexadecyltrimethylammonium bromide] the IC50 [1] was over 100 µM and the IC50 [2] was over 63 µM.
`O=C(O)C1=CC(=C(c2ccc(O)c(C(=O)O)c2)c2ccc(O)c(C(=O)O)c2)C=CC1=O` [Compound 13, Aurintricarboxylic acid] showed an IC50 [1] of over 100 µM.
Work on `CC1(C)CCC2=C(O1)c1ccccc1C(=O)C2=O` [Compound 15, β-laphachone] yielded an IC50 [2] of over 63 µM.
`Cc1cc(C(C#N)c2ccc(Cl)cc2)c(Cl)cc1NC(=O)c1cc(I)cc(I)c1O` (centres unmarked) [Compound 16, Closantel] was tested, and the IC50 [1] was over 100 µM.
`O=c1c(O)c(-c2ccc(O)c(O)c2)oc2c(O)c(O)cc(O)c12` [Compound 18, Gossypetin] was tested, and the IC50 [2] was over 63 µM.
`CCCCCCCCCCCCCCCC(=O)OC[C@H](O)[C@H]1OC(=O)C(O)=C1O` [Compound 20, L-Ascorbyl palmitate] showed an IC50 [2] of over 63 µM.
`CC1=CC(=O)c2c(O)cccc2C1=O` [Compound 21, Plumbagin] was tested, and the IC50 [2] was over 63 µM.
`COc1cc(-c2ccc(/N=N/c3ccc4c(S(=O)(=O)O)cc(S(=O)(=O)O)c(N)c4c3O)c(OC)c2)ccc1/N=N/c1ccc2c(S(=O)(=O)O)cc(S(=O)(=O)O)c(N)c2c1O` [Compound 22, Pontamine sky blue] was tested, and the IC50 [2] was over 63 µM, the IC50 [3] was 6.8 µM and the IC50 (GroEL ATPase) was over 250 µM.
Molecule `C=C(NC(=O)C(=C)NC(=O)c1csc(C2=N[C@@H]3c4csc(n4)[C@H]4NC(=O)c5csc(n5)[C@H]([C@](C)(O)[C@@H](C)O)NC(=O)[C@H]5CSC(=N5)/C(=C/C)NC(=O)[C@H]([C@@H](C)O)NC(=O)c5csc(n5)[C@]3(CC2)NC(=O)[C@H](C)NC(=O)C(=C)NC(=O)[C@H](C)NC(=O)[C@H]([C@@H](C)CC)N[C@@H]2C=Cc3c([C@H](C)O)cc(nc3[C@H]2O)C(=O)O[C@@H]4C)n1)C(N)=O` [Compound 24, Thiostrepton] has an IC50 [1] of over 100 µM and an IC50 [2] of over 63 µM.
Molecule `CCCCC/C=C\C/C=C\C/C=C\C/C=C\CCCC(=O)O` [Compound 27, Arachidonic acid] has an IC50 [1] of over 100 µM and an IC50 [2] of over 63 µM.
`Cc1ccc(C(=O)Nc2ccc(S(=O)(=O)O)c3cc(S(=O)(=O)O)cc(S(=O)(=O)O)c23)cc1NC(=O)c1cccc(NC(=O)Nc2cccc(C(=O)Nc3cc(C(=O)Nc4ccc(S(=O)(=O)O)c5cc(S(=O)(=O)O)cc(S(=O)(=O)O)c45)ccc3C)c2)c1` [Compound 28, Suramin] gave an IC50 [1] of over 100 µM, an IC50 [2] of over 63 µM and an IC50 ([4]; Assay IC50, GroEL/ES-dMDH Refolding, Table 1) of 8.1 µM. The IC50 [4, 7] was 8.1 µM, the IC50 ([4]; IC50 values for inhibiting GroEL/ES refolding functions, approximate, dMDH and dRho refolding assays together) was 10 to 15 µM and the Kd (E. coli GroEL) was 21 µM. The “Log(Kd/μM)” value (E. coli GroEL) was 1.31 ± 0.30, the TΔS (E. coli GroEL) was 4.15 ± 0.72 kcal/mol and the ΔG (E. coli GroEL) was -6.22 ± 0.41 kcal/mol. The ΔH (E. coli GroEL) was -2.07 ± 0.36 kcal/mol, the ΔS (E. coli GroEL) was 0.014 ± 0.002 kcal/mol·K and the “Stoichiometry n, Molecule : GroEL oligomer” value (E. coli GroEL; per GroEL tetradecamer, listed as Suramin (28)) was 9.4 ± 0.6. For the same molecule, the “Stoichiometry n, Molecule : GroEL monomer” value (E. coli GroEL; single-site binding model) was 0.67 ± 0.05 and the “inhibition cutoff in primary and secondary high-throughput screens” value [5] was “did not meet the 50% inhibition cutoff”.
For `Oc1c(Cl)cc(Cl)cc1Sc1cc(Cl)cc(Cl)c1O` [Compound 29, Bithionol], the IC50 [1] was over 100 µM.
For `CC1=CC(=O)c2ccccc2C1=O` [Compound 30, Menadione], the IC50 [2] was over 63 µM.
Work on `CC[C@H](C)[C@H]1O[C@]2(C=C[C@@H]1C)C[C@@H]1C[C@@H](C/C=C(\C)[C@@H](O[C@H]3C[C@H](OC)[C@@H](O[C@H]4C[C@H](OC)[C@@H](O)[C@H](C)O4)[C@H](C)O3)[C@@H](C)/C=C/C=C3\CO[C@@H]4[C@H](O)C(C)=C[C@@H](C(=O)O1)[C@]34O)O2` [Compound 32, Abamectin (Avermectin b1a)] yielded an IC50 [1] of over 100 µM and an IC50 [2] of over 63 µM.
For `CC[C@H](C)C1O[C@]2(C=C[C@@H]1C)C[C@@H]1C[C@@H](C/C=C(\C)[C@@H](O[C@H]3C[C@H](OC)[C@@H](O[C@H]4C[C@H](OC)[C@H](NC(C)=O)[C@H](C)O4)[C@H](C)O3)[C@@H](C)/C=C/C=C3\CO[C@@H]4[C@H](O)C(C)=C[C@@H](C(=O)O1)[C@]34O)O2` (some centres unmarked) [Compound 33, Eprinomectin], the IC50 [1] was over 100 µM and the IC50 [2] was over 63 µM.
Work on `CN(C)c1ccc(C(=C2C=CC(=[N+](C)C)C=C2)c2ccc(N(C)C)cc2)cc1` [Compound 34, Crystal violet] yielded an IC50 [2] of over 63 µM.
`COc1ccc(C(=O)/C=C/c2ccccc2)cc1` [Compound 35, 4’-Methoxychalcone] gave an IC50 [1] of over 100 µM and an IC50 [2] of over 63 µM.
Work on `O=C1c2ccccc2C(=O)c2c(O)c(O)cc(O)c21` [Compound 37, Purpurin] yielded an IC50 [2] of over 63 µM.
`C[C@H](CCC(=O)O)[C@H]1CC[C@H]2[C@@H]3CC[C@@H]4C[C@H](O)CC[C@]4(C)[C@H]3CC[C@]12C` [Compound 38, Lithocholic acid] showed an IC50 [1] of over 100 µM and an IC50 [2] of over 63 µM.
In the case of `CCc1oc2ccccc2c1C(=O)c1cc(Br)c(O)c(Br)c1` [Compound 40, Benzbromarone], the IC50 [1] is reported as over 100 µM and the IC50 [2] is reported as over 63 µM.
`C=C1CC[C@H](O)C/C1=C/C=C1\CCC[C@]2(C)[C@@H]([C@H](C)CCCC(C)C)CC[C@@H]12` [Compound 41, Cholecalciferol (vtamin D3)] was tested, and the IC50 [1] was over 100 µM and the IC50 [2] was over 63 µM.
For `O=C(/C=C/c1ccc(O)cc1)c1ccccc1` [Compound 43, 4-Hydroxychalcone], the IC50 [1] was over 100 µM and the IC50 [2] was over 63 µM.
With `O=C(/C=C/c1ccccc1)c1ccc(O)cc1` [Compound 44, 4’-Hydroxychalcone] the IC50 [1] was over 100 µM and the IC50 [2] was over 63 µM.
Molecule `Oc1ccc(Cl)cc1Cc1cc(Cl)ccc1O` [Compound 45, Dichlorophen] has an IC50 [1] of over 100 µM and an IC50 [2] of over 63 µM.
For `C=C1CC[C@H](O)C/C1=C/C=C1\CCC[C@]2(C)[C@@H]([C@H](C)/C=C/[C@H](C)C(C)C)CC[C@@H]12` [Compound 46, Calciferol (Vtamin D2)], the IC50 [2] was over 63 µM.
For `CC(COc1ccccc1)N(CCCl)Cc1ccccc1` (centres unmarked) [Compound 47, Phenoxybenzamine HCl], the IC50 [1] was over 100 µM and the IC50 [2] was over 63 µM.
`COc1cc(NC(C)CCCN)c2ncccc2c1` (centres unmarked) [Compound 49, Primiquine] gave an IC50 [2] of over 63 µM.
Work on `Cc1cc2nc3c(=O)[nH]c(=O)nc-3n(C[C@H](O)[C@H](O)[C@H](O)COP(=O)(O)O)c2cc1C` [Compound 50, Riboflavin-5-phosphate sodium salt] yielded an IC50 [2] of over 63 µM.
Molecule `CC[n+]1c(-c2ccccc2)c2cc(N)ccc2c2ccc(N)cc21` [Compound 51, Ethidium bromide] has an IC50 [2] of over 63 µM.
Molecule `CC[C@H]1OC(=O)[C@H](C)[C@@H](O[C@H]2C[C@@](C)(OC)[C@@H](O)[C@H](C)O2)[C@H](C)[C@@H](O[C@@H]2O[C@H](C)C[C@H](N(C)C)[C@H]2O)[C@](C)(O)C[C@@H](C)C(=O)[C@H](C)[C@@H](O)[C@]1(C)O` [Compound 55, (−)-Erythromycin] has an IC50 [1] of over 100 µM and an IC50 [2] of over 63 µM.
For `CCOc1nc2cccc(C(=O)O)c2n1Cc1ccc(-c2ccccc2-c2nnn[nH]2)cc1` [Compound 56, Candesartan], the IC50 [1] was over 100 µM and the IC50 [2] was over 63 µM.
With `CC(C)(C)NCC(O)c1ccc(O)c(CO)c1` (centres unmarked) [Compound 57, Albuterol] the IC50 [1] was over 100 µM and the IC50 [2] was over 63 µM.
In the case of `CCCCN1CCC(COC(=O)c2cc(Cl)c(N)c3c2OCCO3)CC1` [Compound 59, SB 204070], the IC50 [1] is reported as over 100 µM and the IC50 [2] is reported as over 63 µM.
`CC(C)n1c(/C=C/C(O)CC(O)CC(=O)O)c(-c2ccc(F)cc2)c2ccccc21` (centres unmarked) [Compound 60, Fluvastatin sodium] gave an IC50 [1] of over 100 µM, an IC50 [2] of over 63 µM and an IC50 [6] of over 250 µM. For the same molecule, the IC50 [4, 7] was over 100 µM, the IC50 [3] was over 100 µM and the IC50 (GroEL ATPase) was over 250 µM.
